Columns and labels:
Assay type in all cases: in vivo
SD male albino rats [1] = assay: Acute inflammation test by carrageenan-induced hind paw edema, composition given 30 minutes before carrageenan (Experimental Example 1); settings: dose 50 mg/kg oral
Protocol: (§1) SD male albino rats weighing 150 to 170 g, which were fasted for 16 hours before experimental use, were used as test animals to induce edema by subcutaneously injecting 0.1 ml of a 1% type IV lambda carrageenan-saline solution as a […] to the subplantar of the right hind paw of each of the albino rats (Winter et al., 1962). The paw volume was measured with a plethysmometer (Ugo Basile, Italy) 0.5, 1, 2, 4 and 6 hours after injection of carrageenan and compared with the paw volume measured before injection of carrageenan for calculation of an increase (%) of paw volume. In addition, an increase (%) of paw volume for a control group was compared with increases (%) of paw volume for treatment groups for obtaining a reduction ratio (%) of paw volume. […] The extent of paw edema (or swelling) was obtained based on the edema enhancement rate and edema inhibition rate measured using the following relationship.

SD male albino rats [2] = assay: Acute inflammation test by carrageenan-induced hind paw edema after 2 weeks of administration (Experimental Example 2); settings: dose 50 mg/kg, 2-week test
Protocol: as §1

ICR male mice = assay: Analgesic effect test, acetic acid-induced writhing (Experimental Example 3); settings: dose 50 mg/kg oral
Protocol: The pharmaceutical compositions prepared in Examples 1 through 4 were orally administered to ICR (Institute of Cancer Research) male mice weighing 25 to 28 g, which were fasted for 12 hours before experimental use. After 30 minutes of administration, 0.7% acetic acid-saline solution was intraperitoneally injected to the mice in a dose of […] per 10 g of body weight and from 5 minutes after administration, the number of writhings occurring to each mouse was counted for 10 minutes (Koster et al., 1959) and the results are summarized in Table 3. Phenylbutazone was used as a positive control.

SD male albino rats [3] = assay: Carrageenan-induced hind paw edema, Example 4 at 30-600 mg/kg (Experimental Example 4)
Protocol: (§2) SD male albino rats weighing 150 to 170 g, which were fasted for 16 hours before experimental use, were used as test animals to induce edema by subcutaneously injecting 0.1 ml of a 1% type IV lambda carrageenan-saline solution as a […] to the subplantar of the right hind paw of each of the albino rats (Winter et al., 1962). The paw volume was measured with a plethysmometer (Ugo Basile, Italy) 0.5, 1, 2, 4 and 6 hours after injection of carrageenan and compared with the paw volume measured before injection of carrageenan for calculation of an increase (%) of paw volume. In addition, an increase (%) of paw volume for a control group was compared with increases (%) of paw volume for treatment groups for obtaining a reduction ratio (%) of paw volume. The pharmaceutical compositions prepared in Examples 1 through 4 were orally administered to the […] 30 minutes before injection of carrageenan. The extent of paw edema (or swelling) was obtained based on the edema enhancement rate and edema inhibition rate measured using the following relationship. […] Phenylbutazone was used as a positive control. In order to examine the inhibitory effect of the pharmaceutical composition prepared in Example 4 of the present invention on acute inflammation induced by carrageenan, […] Experimental Example 1 and the results are summarized in Table 4.

SD male albino rats [4] = assay: Carrageenan-induced hind paw edema, Example 4 administered for 2 weeks (Experimental Example 5); settings: dose 5 mg/kg, 2-week test
Protocol: as §2, with “4. […]” for “4.”

SD male albino rats [5] = assay: as above; settings: dose 5 mg/kg; 2-week test; 2 h after carrageenan

CCCCC1C(=O)N(c2ccccc2)N(c2ccccc2)C1=O [Phenylbutazone, phenylbutazone]
Increased percent of paw volume (%) (SD male albino rats [1]; 1 h after carrageenan): 14.0 ± 0.9 %
Increased percent of paw volume (%) (SD male albino rats [1]; 2 h after carrageenan): 25.0 ± 3.7 %
Increased percent of paw volume (%) (SD male albino rats [1]; 4 h after carrageenan): 37.8 ± 4.3%
Increased percent of paw volume (%) (SD male albino rats [1]; 6 h after carrageenan): 35.0 ± 2.4 %
Increased percent of paw volume (%) (SD male albino rats [2]; 1 h after carrageenan): 13.2 ± 0.8 %
Increased percent of paw volume (%) (SD male albino rats [2]; 2 h after carrageenan): 19.3 ± 2.4 %
Increased percent of paw volume (%) (SD male albino rats [2]; 4 h after carrageenan): 39.1 ± 5.0 %
Increased percent of paw volume (%) (SD male albino rats [2]; 6 h after carrageenan): 35.0 ± 2.4 %
Number of writhing (ICR male mice; counted for 10 minutes): 12.3 ± 0.9
Inhibition rate (%) (ICR male mice; writhing): 50.1%

O=C(O)COC(=O)Cc1ccccc1Nc1c(Cl)cccc1Cl [Aceclofenac, aceclofenac]
Increased percent of paw volume (%) (SD male albino rats [3]; 0.5 h after carrageenan): 12.1 ± 2.6%
reduction ratio (%) of paw volume vs control (SD male albino rats [3]; 0.5 h after carrageenan): 34.8%
Increased percent of paw volume (%) (SD male albino rats [3]; 1 h after carrageenan): 12.1 ± 3.5 %
reduction ratio (%) of paw volume vs control (SD male albino rats [3]; 1 h after carrageenan): 53.7%
Increased percent of paw volume (%) (SD male albino rats [3]; 2 h after carrageenan): 16.7 ± 3.0 %
reduction ratio (%) of paw volume vs control (SD male albino rats [3]; 2 h after carrageenan): 58.7%
Increased percent of paw volume (%) (SD male albino rats [3]; 4 h after carrageenan): 36.9 ± 5.1 %
reduction ratio (%) of paw volume vs control (SD male albino rats [3]; 4 h after carrageenan): 56.1%
Increased percent of paw volume (%) (SD male albino rats [3]; 6 h after carrageenan): 50.6 ± 3.9 %
reduction ratio (%) of paw volume vs control (SD male albino rats [3]; 6 h after carrageenan): 31.5%
Increased percent of paw volume (%) (SD male albino rats [4]; 0.5 h after carrageenan): 10.1 ± 1.4 %
reduction ratio (%) of paw volume vs control (SD male albino rats [4]; 0.5 h after carrageenan): 62.6%
Increased percent of paw volume (%) (SD male albino rats [4]; 1 h after carrageenan): 15.1 ± 1.7 %
reduction ratio (%) of paw volume vs control (SD male albino rats [4]; 1 h after carrageenan): 51.4%
reduction ratio (%) of paw volume vs control (SD male albino rats [4]; 2 h after carrageenan): 59.2%
Increased percent of paw volume (%) (SD male albino rats [4]; 4 h after carrageenan): 55.3 ± 3.9 %
reduction ratio (%) of paw volume vs control (SD male albino rats [4]; 4 h after carrageenan): 29.4%
Increased percent of paw volume (%) (SD male albino rats [4]; 6 h after carrageenan): 61.0 ± 3.5%
reduction ratio (%) of paw volume vs control (SD male albino rats [4]; 6 h after carrageenan): 19.4%
Increased percent of paw volume (%) (SD male albino rats [5]): 19.7 ± 2.0 %

O=C(O)Cc1ccccc1Nc1c(Cl)cccc1Cl [Diclofenac, diclofenac]
Increased percent of paw volume (%) (SD male albino rats [3]; 0.5 h after carrageenan): 9.6 ± 1.6 %
reduction ratio (%) of paw volume vs control (SD male albino rats [3]; 0.5 h after carrageenan): 47.5%
Increased percent of paw volume (%) (SD male albino rats [3]; 1 h after carrageenan): 13.6 ± 2.6 %
reduction ratio (%) of paw volume vs control (SD male albino rats [3]; 1 h after carrageenan): 48.0%
Increased percent of paw volume (%) (SD male albino rats [3]; 2 h after carrageenan): 17.7 ± 3.1 %
reduction ratio (%) of paw volume vs control (SD male albino rats [3]; 2 h after carrageenan): 56.3%
Increased percent of paw volume (%) (SD male albino rats [3]; 4 h after carrageenan): 37.24 ± 5.9 %
reduction ratio (%) of paw volume vs control (SD male albino rats [3]; 4 h after carrageenan): 55.7%
Increased percent of paw volume (%) (SD male albino rats [3]; 6 h after carrageenan): 34.89 ± 2.8 %
reduction ratio (%) of paw volume vs control (SD male albino rats [3]; 6 h after carrageenan): 52.8%
Increased percent of paw volume (%) (SD male albino rats [4]; 0.5 h after carrageenan): 12.0 ± 1.8 %
reduction ratio (%) of paw volume vs control (SD male albino rats [4]; 0.5 h after carrageenan): 55.5%
Increased percent of paw volume (%) (SD male albino rats [4]; 1 h after carrageenan): 13.7 ± 1.4 %
reduction ratio (%) of paw volume vs control (SD male albino rats [4]; 1 h after carrageenan): 55.6%
reduction ratio (%) of paw volume vs control (SD male albino rats [4]; 2 h after carrageenan): 54.4%
Increased percent of paw volume (%) (SD male albino rats [4]; 4 h after carrageenan): 49.2 ± 3.9 %
reduction ratio (%) of paw volume vs control (SD male albino rats [4]; 4 h after carrageenan): 37.1%
Increased percent of paw volume (%) (SD male albino rats [4]; 6 h after carrageenan): 51.8 ± 4.0 %
reduction ratio (%) of paw volume vs control (SD male albino rats [4]; 6 h after carrageenan): 31.50%
Increased percent of paw volume (%) (SD male albino rats [5]): 22.0 ± 2.0 %

— US20090226544A1, “Pharmaceutical Compound For Treating Inflammation, Pain, Arthritis And Spinitis, And Proliferating Osteoblastic Cell And Method For Producing Thereof” (priority 2005, published 2009)
